Results: US20230181582A1, “COMPOSITIONS AND METHODS FOR TREATING LUNG INJURIES ASSOCIATED WITH VIRAL INFECTIONS” (Qx Therapeutics Inc., priority 2020, published 2023)

Tests used:
[1] = reported; cited from earlier work
[2] = reported; cited from earlier work; remark: listed apart in the source
MAP3K2/MAP3K3 [3] = conditions: cited from earlier work; for inhibition of MAP3K2/MAP3K3-mediated phosphorylation of p47phox: substrate p47phox
mouse ALI models [4] = conditions: cited from earlier work
neutrophils = conditions: cited from earlier work
patients = conditions: cited from earlier work
MAP3K2/MAP3K3 [5] = assay: Inhibition of MAP3K2/MAP3K3-mediated phosphorylation of substrates (p47phox, MEK5); format: biochemical
mouse ALI models [6] = format: in vivo
[7] = test system: mouse coronavirus (MHV-1) induced acute lung injury model; assay: Pulmonary permeability (FITC-albumin in BAL) in mouse coronavirus (MHV-1) induced acute lung injury model; format: in vivo, A/J mice
[8] = test system: mouse coronavirus (MHV-1) induced acute lung injury model; assay: Survival and body weight loss in mouse coronavirus (MHV-1) induced acute lung injury model; format: in vivo, A/J mice; conditions: 3 mg/kgbw once daily for 5 days since 24 hr after virus inoculation

COC(=O)c1ccc2c(c1)NC(=O)/C2=C(\Nc1ccc(N(C)C(=O)CN2CCN(C)CC2)cc1)c1ccccc1 [nintedanib, Methyl (3Z)-3-{[(4-{methyl[(4-methylpiperazin-1-yl)acetyl]amino}phenyl)amino](phenyl)methylidene}-2-oxo-2,3-dihydro-1H-indole-6-carboxylate]
half-life [1]: 10 to 15 h
protein binding [2]: 97.8%
inhibition of MAP3K2/MAP3K3-mediated phosphorylation of p47phox (MAP3K2/MAP3K3 [3]): also inhibits
reduction of ALI in mouse models (mouse ALI models [4]): reduce ALI

Cc1ccc(Nc2nccc(N(C)c3ccc4c(C)n(C)nc4c3)n2)cc1S(N)(=O)=O [pazopanib, 5-({4-[(2,3-Dimethyl-2H-indazol-6-yl)methylamino]pyrimidin-2-yl}amino)-2-methylbenzenesulfonamide]
ROS levels (neutrophils): elevates ROS levels
bioavailability [1]: 14-21%
half-life [1]: 30.9 to 31.9 h
protein binding [2]: > 99.5%
ILD/pneumonitis reported in patients in the clinical trials (patients; clinical trials): 0.1%
patients who developed a pneumothorax (patients; randomized RCC trial): [t]wo of 290
pneumothorax occurrence in patients treated (patients; randomized STS trial (8/240)): 3%
affinity as p47phox substrate-specific inhibitor for MAP3K2 and 3 (MAP3K2/MAP3K3 [5]): low nanomolar
mortality rate in acid and LPS models (mouse ALI models [6]; acid and LPS ALI models): impact mortality rate
prophylactic effect on lung injury in acid and LPS models (mouse ALI models [6]; acid and LPS ALI models, prophylactic): prophylactic effect
ameliorating ALI in the two mouse ALI/ARDS models (mouse ALI models [6]; two mouse ALI/ARDS models, dependent on MAP3K2/3 and ROS production): effective in ameliorating ALI
pulmonary permeability ([7]; 2 doses at 3 mg/kgbw retro-orbital (24, 33 hr after 6000 PFU MHV-1), FIG. 2): significantly reduce
pulmonary permeability ([7]; 3 doses at 3 mg/kgbw retro-orbital (6, 21, 32 hr after 5000 PFU MHV-1), FIG. 1): significantly reduce
pulmonary permeability ([7]; one dose 3 mg/kgbw at 24 hr after virus inoculation, FIG. 3): significantly reduce
pulmonary permeability ([7]; one dose 3 mg/kgbw at 48 hr after virus inoculation, FIG. 4): significantly reduce
pulmonary permeability ([7]; one dose 3 mg/kgbw at 72 hr after virus inoculation, FIG. 5): negligible effect
inhibition of other substrates of MAP3K2/MAP3K3 such as MEK5 (MAP3K2/MAP3K3 [3]; substrate MEK5): μM levels
inhibition of MAP3K2/MAP3K3-mediated phosphorylation of p47phox (MAP3K2/MAP3K3 [3]): low nM levels
survival rate ([8]; FIG. 6): does not affect
body weight loss ([8]; FIG. 7): does not affect

Cc1ccc(NC(=O)c2ccc(CN3CCN(C)CC3)cc2)cc1Nc1nccc(-c2cccnc2)n1 [imatinib]
inhibition of MAP3K2/MAP3K3-mediated phosphorylation of p47phox (MAP3K2/MAP3K3 [3]): do not inhibit
